Laboratory results from patent publication US4894388A, “Glycosidase inhibitors and use thereof” (priority 1988, dated 1990).

Key:
N-acetyl hexosaminidase = assay: Inhibition of N-acetyl hexosaminidase in human liver extract; assay type: biochemical; details: 1 mM inhibitor; 0.5 mM substrate; optimal pH; mean of 2-4 determinations
Experimental: (§1) Post mortem human liver, which had been stored at -20° C. until required was homogenized in deionized water (50%, w/v) in a Potter-Elvehjem homogenizer and then centrifuged at 37,000 g for 30 min in an MSE 18 centrifuge. The resultant supernatant was used as the source of enzymic activities.
(§2) The glycosidase activities in an extract of normal human liver were assayed by using the appropriate fluorigenic 4-methylumbelliferyl glycoside substrate (Koch-Light, Haverhill, Suffolk, U.K.) with a concentration of 0.5 mM at the optimal pH of each enzyme [Burditt et al., Clin. Chim. Acta 140, 201-209 (1980)]. Human liver acidic (lysomal) and neutral (cystosolic) α-D-mannosidases were assayed similarly at their pH-optima, of 4.0 and 6.5, respectively, after separation by affinity chromatography on concanavalin A-Sepharose® (Pharmacia Ltd, Milton Keynes, Bucks, U.K.) [Phillips et al., Biochem. J. 153, 579-587 (1976)]. The residual intermediate (Golgi) α-mannosidase II activity in extracts of fibroblasts from a patient with the lysosomal storage disease, mannosidosis, was assayed at pH 5.75 using the synthetic substrate (Burditt et al, Ibid.). The specificity of the inhibitors was determined by assaying the glycosidases in the presence and absence of a 1 mM solution of each compound. The nature of the inhibition and the value of Ki were determined using the Dixon graphical procedure.
(§3) Enzymic activities were measured in the presence and absence of 1 mM inhibitor. Inhibition (%) was calculated as the fraction of activity lost in the presence of inhibitor. The values are means of two to four independent determinations.

Golgi α-D-mannosidase II = target: T1, Golgi α-D-mannosidase II (Homo sapiens, UniProt Q16706); assay: Inhibition of Golgi α-D-mannosidase II in extracts of fibroblasts from a mannosidosis patient; assay type: biochemical; details: for inhibition at 1000 µM: 1 mM inhibitor, pH 5.75, mean of 2-4 determinations
T1 construct: activity in extracts of fibroblasts from a patient; endogenous in cells; host or cells: fibroblasts from a mannosidosis patient (extract)
T1 sequence (Q16706 1-1144): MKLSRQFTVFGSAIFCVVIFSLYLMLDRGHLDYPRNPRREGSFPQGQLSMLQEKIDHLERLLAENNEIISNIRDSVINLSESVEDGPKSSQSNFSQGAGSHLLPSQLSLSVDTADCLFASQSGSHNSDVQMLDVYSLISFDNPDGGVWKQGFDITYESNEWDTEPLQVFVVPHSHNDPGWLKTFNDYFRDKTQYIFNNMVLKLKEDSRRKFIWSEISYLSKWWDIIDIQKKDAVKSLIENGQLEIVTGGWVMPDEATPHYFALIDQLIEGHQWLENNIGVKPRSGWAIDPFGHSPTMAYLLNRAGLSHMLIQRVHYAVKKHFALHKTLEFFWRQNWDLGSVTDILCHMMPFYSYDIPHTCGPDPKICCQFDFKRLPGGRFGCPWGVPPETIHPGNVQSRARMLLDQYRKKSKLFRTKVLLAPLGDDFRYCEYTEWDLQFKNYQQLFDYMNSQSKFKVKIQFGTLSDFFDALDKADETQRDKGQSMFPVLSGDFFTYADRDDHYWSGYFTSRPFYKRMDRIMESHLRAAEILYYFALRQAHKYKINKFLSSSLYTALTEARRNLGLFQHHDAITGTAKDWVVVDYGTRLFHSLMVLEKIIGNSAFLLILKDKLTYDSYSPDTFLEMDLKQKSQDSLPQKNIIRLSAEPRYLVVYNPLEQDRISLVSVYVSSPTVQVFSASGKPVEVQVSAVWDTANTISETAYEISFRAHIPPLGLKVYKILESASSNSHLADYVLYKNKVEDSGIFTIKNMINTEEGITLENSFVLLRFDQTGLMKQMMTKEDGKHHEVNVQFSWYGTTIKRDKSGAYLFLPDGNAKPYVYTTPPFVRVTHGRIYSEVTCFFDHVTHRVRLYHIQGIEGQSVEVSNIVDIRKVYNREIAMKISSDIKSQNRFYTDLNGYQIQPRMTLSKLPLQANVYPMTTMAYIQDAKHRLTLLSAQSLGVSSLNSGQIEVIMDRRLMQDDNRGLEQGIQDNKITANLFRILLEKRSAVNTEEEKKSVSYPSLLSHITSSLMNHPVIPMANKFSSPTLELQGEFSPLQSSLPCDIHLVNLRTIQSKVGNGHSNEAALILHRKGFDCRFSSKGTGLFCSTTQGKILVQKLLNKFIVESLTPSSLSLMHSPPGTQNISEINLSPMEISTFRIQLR
Experimental: as §2, §3

[1] = tested on: α-D-mannosidase (multiple forms); assay: Inhibition of multiple forms of α-D-mannosidase; assay type: biochemical; details: human liver
Experimental: as §1, §2

β-D-glucosidase = assay: Inhibition of β-D-glucosidase; assay type: biochemical, human; details: relative to α-D-mannosidase
Experimental: as §1, §2

Inhibition (%) (N-acetyl hexosaminidase)	inhibition at 1000 µM (Golgi α-D-mannosidase II) [%]	Structure (SMILES)	inhibition of multiple forms of α-D-mannosidase (in words) [1]	inhibition of β-D-glucosidase (in words) (β-D-glucosidase)	inhibition of α-D-mannosidase II (in words) (Golgi α-D-mannosidase II)
15	0	OC[C@H](O)[C@H]1[C@H](O)[C@H](O)CN1Cc1ccccc1 [N-benzyl DIA, N-benzyl-1,4-dideoxy-1,4-imino-L-allitol]			
37	33	CN1C[C@@H](O)[C@@H](O)[C@@H]1[C@@H](O)CO [N-methyl DIA, N-methyl-1,4-dideoxy-1,4-imino-L-allitol]			

Structure (SMILES)	Inhibition (%) (N-acetyl hexosaminidase)	inhibition at 1000 µM (Golgi α-D-mannosidase II) [%]	inhibition of multiple forms of α-D-mannosidase (in words) [1]	inhibition of β-D-glucosidase (in words) (β-D-glucosidase)	inhibition of α-D-mannosidase II (in words) (Golgi α-D-mannosidase II)
OC[C@H](O)[C@@H]1NC[C@@H](O)[C@H]1O [DIA, 1,4-dideoxy-1,4-imino-L-allitol]	42	95	moderately strong inhibitor	to a lesser extent	potent inhibitor
